Results taken from ChEMBL document CHEMBL4308841, “Synthesis, in vitro antiproliferative activity, and kinase inhibitory effects of pyrazole-containing diarylureas and diarylamides” (Eur J Med Chem, 2018).

Experiments:
[1] = system: A549; test: Growth inhibition of human A549/ATCC cells incubated for 48 hrs by sulforhodamine B assay; assay type: functional, cell-based; settings: A549, 48 h
[2] = system: HCT-116; test: Growth inhibition of human HCT116 cells incubated for 48 hrs by sulforhodamine B assay; assay type: functional, cell-based; settings: HCT-116, 48 h
[3] = system: SF-295; test: Growth inhibition of human SF295 cells incubated for 48 hrs by sulforhodamine B assay; assay type: functional, cell-based; settings: SF-295, 48 h
[4] = system: SK-MEL-28; test: Growth inhibition of human SK-MEL-28 cells incubated for 48 hrs by sulforhodamine B assay; assay type: functional, cell-based; settings: SK-MEL-28, 48 h
[5] = system: MDA-MB-231; test: Growth inhibition of human MDA-MB-231 cells incubated for 48 hrs by sulforhodamine B assay; assay type: functional, cell-based; settings: MDA-MB-231, 48 h
[6] = system: T47D; test: Growth inhibition of human T47D cells incubated for 48 hrs by sulforhodamine B assay; assay type: functional, cell-based
[7] = system: K562; test: Growth inhibition of human K562 cells assessed as cell growth at 0.01 uM incubated for 48 hrs by sulforhodamine B assay relative to control; assay type: functional; settings: K562, 48 h, read-out: Activity
[8] = system: Malme-3M; test: Growth inhibition of human MALME-3M cells assessed as cell growth at 0.01 uM incubated for 48 hrs by sulforhodamine B assay relative to control; assay type: functional; settings: read-out: Activity
[9] = system: OVCAR-8; test: Growth inhibition of human OVCAR8 cells assessed as cell growth at 0.01 uM incubated for 48 hrs by sulforhodamine B assay relative to control; assay type: functional; settings: OVCAR-8, 48 h, read-out: Activity
[10] = system: A498; test: Growth inhibition of human A498 cells assessed as cell growth at 0.01 uM incubated for 48 hrs by sulforhodamine B assay relative to control; assay type: functional; settings: A498, 48 h, read-out: Activity
[11] = system: CAKI-1; test: Growth inhibition of human Caki1 cells assessed as cell growth at 0.01 uM incubated for 48 hrs by sulforhodamine B assay relative to control; assay type: functional; settings: CAKI-1, 48 h, read-out: Activity
[12] = system: NCI-H460; test: Growth inhibition of human NCI-H460 cells assessed as cell growth at 0.1 uM incubated for 48 hrs by sulforhodamine B assay relative to control; assay type: functional; settings: NCI-H460, 48 h, read-out: Activity
[13] = system: HCT-116; test: Growth inhibition of human HCT116 cells assessed as cell growth at 0.1 uM incubated for 48 hrs by sulforhodamine B assay relative to control; assay type: functional; settings: HCT-116, 48 h, read-out: Activity
[14] = system: IGROV-1; test: Growth inhibition of human IGROV1 cells assessed as cell growth at 0.1 uM incubated for 48 hrs by sulforhodamine B assay relative to control; assay type: functional; settings: IGROV-1, 48 h, read-out: Activity
[15] = system: NCI/ADR-RES; test: Growth inhibition of human NCI/ADR-RES cells assessed as cell growth at 0.1 uM incubated for 48 hrs by sulforhodamine B assay relative to control; assay type: functional; settings: read-out: Activity
[16] = system: ACHN; test: Growth inhibition of human ACHN cells assessed as cell growth at 0.1 uM incubated for 48 hrs by sulforhodamine B assay relative to control; assay type: functional; settings: read-out: Activity
[17] = system: MCF7; test: Growth inhibition of human MCF7 cells assessed as cell growth at 0.1 uM incubated for 48 hrs by sulforhodamine B assay relative to control; assay type: functional; settings: MCF7, 48 h, read-out: Activity
[18] = system: T47D; test: Growth inhibition of human T47D cells assessed as cell growth at 0.1 uM incubated for 48 hrs by sulforhodamine B assay relative to control; assay type: functional; settings: read-out: Activity
[19] = system: SNB-75; test: Growth inhibition of human SNB75 cells assessed as cell growth at 1 uM incubated for 48 hrs by sulforhodamine B assay relative to control; assay type: functional; settings: SNB-75, 48 h, read-out: Activity
[20] = system: MDA-MB-435; test: Growth inhibition of human MDA-MB-435 cells assessed as cell growth at 1 uM incubated for 48 hrs by sulforhodamine B assay relative to control; assay type: functional; settings: MDA-MB-435, 48 h, read-out: Activity
[21] = system: UACC-62; test: Growth inhibition of human UACC62 cells assessed as cell growth at 1 uM incubated for 48 hrs by sulforhodamine B assay relative to control; assay type: functional; settings: UACC-62, 48 h, read-out: Activity
[22] = system: RXF 393; test: Growth inhibition of human RXF393 cells assessed as cell growth at 1 uM incubated for 48 hrs by sulforhodamine B assay relative to control; assay type: functional; settings: RXF 393, 48 h, read-out: Activity
[23] = system: DU-145; test: Growth inhibition of human DU145 cells assessed as cell growth at 1 uM incubated for 48 hrs by sulforhodamine B assay relative to control; assay type: functional; settings: DU-145, 48 h, read-out: Activity
[24] = system: T47D; test: Growth inhibition of human T47D cells assessed as cell growth at 1 uM incubated for 48 hrs by sulforhodamine B assay relative to control; assay type: functional; settings: read-out: Activity
[25] = system: KM12; test: Growth inhibition of human KM12 cells assessed as cell growth at 100 uM incubated for 48 hrs by sulforhodamine B assay relative to control; assay type: functional; settings: KM12, 48 h, read-out: Activity
[26] = system: SK-MEL-2; test: Growth inhibition of human SK-MEL-2 cells assessed as cell growth at 100 uM incubated for 48 hrs by sulforhodamine B assay relative to control; assay type: functional; settings: SK-MEL-2, 48 h, read-out: Activity
[27] = system: UACC-62; test: Growth inhibition of human UACC62 cells assessed as cell growth at 100 uM incubated for 48 hrs by sulforhodamine B assay relative to control; assay type: functional; settings: UACC-62, 48 h, read-out: Activity
[28] = system: DU-145; test: Growth inhibition of human DU145 cells assessed as cell growth at 100 uM incubated for 48 hrs by sulforhodamine B assay relative to control; assay type: functional; settings: DU-145, 48 h, read-out: Activity
[29] = system: MDA-MB-231; test: Growth inhibition of human MDA-MB-231 cells assessed as cell growth at 100 uM incubated for 48 hrs by sulforhodamine B assay relative to control; assay type: functional; settings: MDA-MB-231, 48 h, read-out: Activity
[30] = read-out: LC50 (the source's name)
[31] = read-out: pLC50 (the source's name) (converted)

## COc1cc(Cl)cc(-c2nn(-c3cccc(NC(=O)Nc4cc(C(F)(F)F)cc(C(F)(F)F)c4)c3)cc2-c2ccncc2)c1
[1]
  IC50: 0.37 µM
[1]; read-out: GI50
  GI50: 0.372 µM
[1]; [30]
  CC50: 3.48 µM
[1]; read-out: TGI
  TGI: 4.68 µM
[1]; read-out: pGI50 (converted)
  GI50: 0.372 µM
[1]; [31]
  CC50: 34.7 µM
[1]; read-out: pTGI (converted)
  TGI: 4.68 µM
[2]
  IC50: 0.33 µM
[2]; read-out: GI50
  GI50: 0.332 µM
[2]; read-out: TGI
  TGI: 1.27 µM
[2]; read-out: pGI50 (converted)
  GI50: 0.331 µM
[2]; [31]
  CC50: 6.61 µM
[2]; read-out: pTGI (converted)
  TGI: 1.26 µM
[3]
  IC50: 0.33 µM
[3]; read-out: GI50
  GI50: 0.332 µM
[3]; [30]
  CC50: 0.0637 µM
[3]; read-out: TGI
  TGI: 1.44 µM
[3]; read-out: pGI50 (converted)
  GI50: 0.331 µM
[3]; [31]
  CC50: 6.31 µM
[3]; read-out: pTGI (converted)
  TGI: 1.45 µM
[4]
  IC50: 0.9 µM
[4]; read-out: GI50
  GI50: 0.9 µM
[4]; read-out: TGI
  TGI: 4.93 µM
[4]; read-out: pGI50 (converted)
  GI50: 0.891 µM
[4]; [31]
  CC50: 69.2 µM
[4]; read-out: pTGI (converted)
  TGI: 4.9 µM
[5]
  IC50: 0.46 µM
[5]; read-out: GI50
  GI50: 0.456 µM
[5]; read-out: TGI
  TGI: 1.86 µM
[5]; read-out: pGI50 (converted)
  GI50: 0.457 µM
[5]; [31]
  CC50: 5.37 µM
[5]; read-out: pTGI (converted)
  TGI: 1.86 µM
[6]
  IC50: 0.39 µM
[6]; read-out: GI50
  GI50: 0.39 µM
[6]; [30]
  CC50: > 100 µM
[6]; read-out: TGI
  TGI: 4.16 µM
[6]; read-out: pGI50 (converted)
  GI50: 0.389 µM
[6]; [31]
  CC50: > 100 µM
[6]; read-out: pTGI (converted)
  TGI: 4.17 µM
[7]
  growth at 0.01 µM: 97%
[8]
  growth at 0.01 µM: 92%
[9]
  growth at 0.01 µM: 99%
[10]
  growth at 0.01 µM: 64%
[11]
  growth at 0.01 µM: 97%
[12]
  growth at 0.1 µM: 101%
[13]
  growth at 0.1 µM: 97%
[14]
  growth at 0.1 µM: 104%
[15]
  growth at 0.1 µM: 95%
[16]
  growth at 0.1 µM: 99%
[17]
  growth at 0.1 µM: 91%
[18]
  growth at 0.1 µM: 96%
[19]
  growth at 1 µM: 48%
[20]
  growth at 1 µM: 22%
[21]
  growth at 1 µM: 18%
[22]
  growth at 1 µM: 50%
[23]
  growth at 1 µM: 27%
[24]
  growth at 1 µM: 15%
[25]
  growth at 100 µM: -83%
[26]
  growth at 100 µM: -83%
[27]
  growth at 100 µM: -71%
[28]
  growth at 100 µM: -58%
[29]
  growth at 100 µM: -70%
